# Bridge positions count the residues as written; N and C are the ends. Ends that are not written are not given here.
# Test system: patients with chronic idiopathic constipation (CIC)
# Assay: Second phase 3 CIC trial: CSBM weekly responders by week
# Format: in vivo, human
# Details: MRA
# From the text: Both trials include a two-week pre-treatment baseline period, a 12-week treatment period, and a two-week post-treatment period. The phase 3 CIC program was designed to support regulatory submission in the U. S.
# The primary endpoint for both trials is the proportion of durable overall responders (%), which is the current regulatory endpoint required for U.S. approval in CIC. The FDA has defined a durable overall responder as a patient who fulfills both ≧3 complete spontaneous bowel movements (CSBMs) per week plus an increase of ≧1 CSBM from baseline in the same week, for 9 out of the 12 treatment weeks. In addition, the same patient must be an overall responder for at least 3 of the last 4 treatment weeks in order to be considered a durable overall responder.
# Patients were selected using Rome 3 criteria modified for CIC and had (1) fewer than 3 defecations per week, (2) loose stools occurring rarely without laxatives, (3) inadequate criteria for irritable bowel syndrome with constipation (IBS-C), and (4) at least two of the following applied to at least 25% of defecations: (a) straining during evacuation, (b) lumpy or hard stools, (c) sensation of anorectal obstruction or blockage. Rome 3 requires patients to fulfill the criteria for the last 3 months with symptom onset at least 6 months prior to diagnosis.
# [1] = Week 9, Active Combined, ITT Population-Excluding Duplicate Patients
# [2] = Week 9, Active Combined, ITT Population
# [3] = Week 10, 3 mg, ITT Population-Excluding Duplicate Patients
# [4] = Week 10, 6 mg, ITT Population-Excluding Duplicate Patients
# [5] = Week 10, Active Combined, ITT Population-Excluding Duplicate Patients
# [6] = Week 10, Active Combined, ITT Population
# [7] = Week 11, 3 mg, All Randomized (includes Duplicate Patients)
# [8] = Week 11, 3 mg, ITT Population-Excluding Duplicate Patients
# [9] = Week 11, 6 mg, All Randomized (includes Duplicate Patients)
# [10] = Week 11, 6 mg, ITT Population-Excluding Duplicate Patients
# [11] = Week 11, Active Combined, All Randomized (includes Duplicate Patients)
# [12] = Week 11, Active Combined, ITT Population-Excluding Duplicate Patients
# [13] = Week 11, Active Combined, ITT Population
# [14] = Week 12, 3 mg, All Randomized (includes Duplicate Patients)
# [15] = Week 12, 3 mg, ITT Population-Excluding Duplicate Patients
# [16] = Week 12, 6 mg, All Randomized (includes Duplicate Patients)
# [17] = Week 12, 6 mg, ITT Population-Excluding Duplicate Patients
# [18] = Week 12, Active Combined, All Randomized (includes Duplicate Patients)
# [19] = Week 12, Active Combined, ITT Population-Excluding Duplicate Patients
# [20] = Week 12, Active Combined, ITT Population
substance,measurement,setting,value
"Asn^1-Asp^2-Glu^3-Cys^4-Glu^5-Leu^6-Cys^7-Val^8-Asn^9-Val^10-Ala^11-Cys^12-Thr^13-Gly^14-Cys^15-Leu^16 (NDECELCVNVACTGCL; disulfide 4-12, 7-15) [Plecanatide, uroguanylin analogue, guanylate cyclase-C agonist; (C4:C12, C7:C15) bicycle peptide]",Odds Ratio (adjusted),"Week 9, 6 mg vs placebo, ITT Population",0.727
same,"CSBM Weekly Responders, n (%)",[1],286 (32.6) n (%)
same,"Non-Responders, n (%)",[1],591 (67.4) n (%)
same,"CSBM Weekly Responders, n (%)",[2],288 (32.3) n (%)
same,"Non-Responders, n (%)",[2],604 (67.7) n (%)
same,Difference in Proportions (adjusted),"Week 10, 3 mg minus placebo, All Randomized (includes Duplicate Patients)",0.067
same,Odds Ratio (adjusted),"Week 10, 3 mg vs placebo, All Randomized (includes Duplicate Patients)",0.708
same,"Non-Responders, n (%)","Week 10, 3 mg, All Randomized (includes Duplicate Patients)",328 (69.8) n (%)
same,"CSBM Weekly Responders, n (%)","Week 10, 3 mg, ITT Population",137 (30.9) n (%)
same,"Non-Responders, n (%)","Week 10, 3 mg, ITT Population",306 (69.1) n (%)
same,"CSBM Weekly Responders, n (%)",[3],136 (31.3) n (%)
same,"Non-Responders, n (%)",[3],298 (68.7) n (%)
same,Difference in Proportions (adjusted),"Week 10, 6 mg minus placebo, All Randomized (includes Duplicate Patients)",0.097
same,Odds Ratio (adjusted),"Week 10, 6 mg vs placebo, All Randomized (includes Duplicate Patients)",0.619
same,"Non-Responders, n (%)","Week 10, 6 mg, All Randomized (includes Duplicate Patients)",315 (66.9) n (%)
same,"CSBM Weekly Responders, n (%)","Week 10, 6 mg, ITT Population",154 (34.3) n (%)
same,"Non-Responders, n (%)","Week 10, 6 mg, ITT Population",295 (65.7) n (%)
same,"CSBM Weekly Responders, n (%)",[4],153 (34.5) n (%)
same,"Non-Responders, n (%)",[4],290 (65.5) n (%)
same,"Non-Responders, n (%)","Week 10, Active Combined, All Randomized (includes Duplicate Patients)",643 (68.3) n (%)
same,Difference in Proportions (adjusted),"Week 10, 3 mg minus placebo, ITT Population-Excluding Duplicate Patients",0.064
same,Difference in Proportions (adjusted),"Week 10, 3 mg minus placebo, ITT Population",0.062
same,Odds Ratio (adjusted),"Week 10, 3 mg vs placebo, ITT Population-Excluding Duplicate Patients",0.729
same,Odds Ratio (adjusted),"Week 10, 3 mg vs placebo, ITT Population",0.734
same,Difference in Proportions (adjusted),"Week 10, 6 mg minus placebo, ITT Population-Excluding Duplicate Patients",0.096
same,Difference in Proportions (adjusted),"Week 10, 6 mg minus placebo, ITT Population",0.096
same,Odds Ratio (adjusted),"Week 10, 6 mg vs placebo, ITT Population-Excluding Duplicate Patients",0.630
same,Odds Ratio (adjusted),"Week 10, 6 mg vs placebo, ITT Population",0.629
same,"CSBM Weekly Responders, n (%)",[5],289 (33.0) n (%)
same,"Non-Responders, n (%)",[5],588 (67.0) n (%)
same,"CSBM Weekly Responders, n (%)",[6],291 (32.6) n (%)
same,"Non-Responders, n (%)",[6],601 (67.4) n (%)
same,Difference in Proportions (adjusted),"Week 11, 3 mg minus placebo, All Randomized (includes Duplicate Patients)",0.089
same,Odds Ratio (adjusted),"Week 11, 3 mg vs placebo, All Randomized (includes Duplicate Patients)",0.643
same,"CSBM Weekly Responders, n (%)",[7],153 (32.6) n (%)
same,"Non-Responders, n (%)",[7],317 (67.4) n (%)
same,"CSBM Weekly Responders, n (%)","Week 11, 3 mg, ITT Population",147 (33.2) n (%)
same,"Non-Responders, n (%)","Week 11, 3 mg, ITT Population",296 (66.8) n (%)
same,"CSBM Weekly Responders, n (%)",[8],147 (33.9) n (%)
same,"Non-Responders, n (%)",[8],287 (66.1) n (%)
same,Difference in Proportions (adjusted),"Week 11, 6 mg minus placebo, All Randomized (includes Duplicate Patients)",0.082
same,Odds Ratio (adjusted),"Week 11, 6 mg vs placebo, All Randomized (includes Duplicate Patients)",0.664
same,"CSBM Weekly Responders, n (%)",[9],150 (31.8) n (%)
same,"Non-Responders, n (%)",[9],321 (68.2) n (%)
same,"CSBM Weekly Responders, n (%)","Week 11, 6 mg, ITT Population",145 (32.3) n (%)
same,"Non-Responders, n (%)","Week 11, 6 mg, ITT Population",304 (67.7) n (%)
same,"CSBM Weekly Responders, n (%)",[10],144 (32.5) n (%)
same,"Non-Responders, n (%)",[10],299 (67.5) n (%)
same,"CSBM Weekly Responders, n (%)",[11],303 (32.2) n (%)
same,"Non-Responders, n (%)",[11],638 (67.8) n (%)
same,Difference in Proportions (adjusted),"Week 11, 3 mg minus placebo, ITT Population-Excluding Duplicate Patients",0.089
same,Difference in Proportions (adjusted),"Week 11, 3 mg minus placebo, ITT Population",0.086
same,Odds Ratio (adjusted),"Week 11, 3 mg vs placebo, ITT Population-Excluding Duplicate Patients",0.649
same,Odds Ratio (adjusted),"Week 11, 3 mg vs placebo, ITT Population",0.654
same,Difference in Proportions (adjusted),"Week 11, 6 mg minus placebo, ITT Population-Excluding Duplicate Patients",0.076
same,Difference in Proportions (adjusted),"Week 11, 6 mg minus placebo, ITT Population",0.078
same,Odds Ratio (adjusted),"Week 11, 6 mg vs placebo, ITT Population-Excluding Duplicate Patients",0.690
same,Odds Ratio (adjusted),"Week 11, 6 mg vs placebo, ITT Population",0.68
same,"CSBM Weekly Responders, n (%)",[12],291 (33.2) n (%)
same,"Non-Responders, n (%)",[12],586 (66.8) n (%)
same,"CSBM Weekly Responders, n (%)",[13],292 (32.7) n (%)
same,"Non-Responders, n (%)",[13],600 (67.3) n (%)
same,Difference in Proportions (adjusted),"Week 12, 3 mg minus placebo, All Randomized (includes Duplicate Patients)",0.068
same,Odds Ratio (adjusted),"Week 12, 3 mg vs placebo, All Randomized (includes Duplicate Patients)",0.711
same,"CSBM Weekly Responders, n (%)",[14],145 (30.9) n (%)
same,"Non-Responders, n (%)",[14],325 (69.1) n (%)
same,"CSBM Weekly Responders, n (%)","Week 12, 3 mg, ITT Population",140 (31.6) n (%)
same,"Non-Responders, n (%)","Week 12, 3 mg, ITT Population",303 (68.4) n (%)
same,"CSBM Weekly Responders, n (%)",[15],140 (32.3) n (%)
same,"Non-Responders, n (%)",[15],294 (67.7) n (%)
same,Difference in Proportions (adjusted),"Week 12, 6 mg minus placebo, All Randomized (includes Duplicate Patients)",0.088
same,Odds Ratio (adjusted),"Week 12, 6 mg vs placebo, All Randomized (includes Duplicate Patients)",0.647
same,"CSBM Weekly Responders, n (%)",[16],155 (32.9) n (%)
same,"Non-Responders, n (%)",[16],316 (67.1) n (%)
same,"CSBM Weekly Responders, n (%)","Week 12, 6 mg, ITT Population",151 (33.6) n (%)
same,"Non-Responders, n (%)","Week 12, 6 mg, ITT Population",298 (66.4) n (%)
same,"CSBM Weekly Responders, n (%)",[17],150 (33.9) n (%)
same,"Non-Responders, n (%)",[17],293 (66.1) n (%)
same,"CSBM Weekly Responders, n (%)",[18],300 (31.9) n (%)
same,"Non-Responders, n (%)",[18],641 (68.1) n (%)
same,Difference in Proportions (adjusted),"Week 12, 3 mg minus placebo, ITT Population-Excluding Duplicate Patients",0.066
same,Difference in Proportions (adjusted),"Week 12, 3 mg minus placebo, ITT Population",0.062
same,Odds Ratio (adjusted),"Week 12, 3 mg vs placebo, ITT Population-Excluding Duplicate Patients",0.724
same,Odds Ratio (adjusted),"Week 12, 3 mg vs placebo, ITT Population",0.737
same,Difference in Proportions (adjusted),"Week 12, 6 mg minus placebo, ITT Population-Excluding Duplicate Patients",0.082
same,Difference in Proportions (adjusted),"Week 12, 6 mg minus placebo, ITT Population",0.082
same,Odds Ratio (adjusted),"Week 12, 6 mg vs placebo, ITT Population-Excluding Duplicate Patients",0.673
same,Odds Ratio (adjusted),"Week 12, 6 mg vs placebo, ITT Population",0.672
same,"CSBM Weekly Responders, n (%)",[19],290 (33.1) n (%)
same,"Non-Responders, n (%)",[19],587 (66.9) n (%)
same,"CSBM Weekly Responders, n (%)",[20],291 (32.6) n (%)
same,"Non-Responders, n (%)",[20],601 (67.4) n (%)

# — patent US20160367623A1, “AGONISTS OF GUANYLATE CYCLASE USEFUL FOR THE TREATMENT OF GASTROINTESTINAL DISORDERS, INFLAMMATION, CANCER AND OTHER DISORDERS” (priority 2015, published 2016)
